What was measured:
[1] = system: human ovarian (SKOV-3) cancer cell line; experiment: MTT cytotoxicity assay, SKOV-3; type: cell-based; conditions: for IC50: Homo sapiens, SK-OV-3, 72 h, six concentrations, mean ± SD of three independent experiments; for IC50 / cytotoxic activity against SKOV-3 cell line (in words): MTT
Procedure: (§1) To establish a SAR of the C-3 (R2) and C-23 (R1) of the AA derivatives, new compounds were subjected to MTT assays to evaluate their in-vitro antiproliferative activities against ovarian (SKOV-3) and colon (HCT-116) cancer cell lines, the IC50 values (the concentration that inhibits 50% of cell growth) of which are summarized in Table 1. Doxorubicin was used as the positive drug.
(§2) HCT116, SKOV-3, A549, A2780, HepG2, HL-60 and MCF-7 cells were incubated in DMEM with 10% heat-inactivated FBS in a humidified atmosphere of 5.0% CO2 at 37 °C. The in-vitro cytotoxicity of AA derivatives was determined using MTT assay. A 100-μL volume of culture medium at a concentration of 3 × 10^4 cell/mL was added to 96-well plate wells, which were maintained in a humidified atmosphere of 5.0% CO2 at 37 °C. After 24 h, 10 μL solution of AA derivatives and doxorubicin dissolved in DMSO and phophate buffered saline (PBS) and then diluted with DMEM under a concentration gradient, was added in the wells for final concentrations of 100, 10, 1, 0.1, 0.01, 0.001 μM of compounds in HCT116 and SKOV-3 cells and 125, 25, 5, 1, 0.2, 0.04 μM in A549, A2780, HepG2, HL-60 and MCF-7 cells. After 72 h incubation in a humidified atmosphere of 5.0% CO2 at 37 °C, 20 μl MTT solution (5 mg/mL) was added into each well and the cells were incubated. After 4 h, 100 μL HCl aqueous solution (0.01 M) with 10% SDS and 5% isobutanol was added into each well to dissolve the precipitated formazan and the absorbance was read at 570 nm on Thermo Scientific Varioskan Flash plate reader. All IC50 values were averaged from three independent experiments.

[2] = system: human colon (HCT-116) cancer cell line; experiment: MTT cytotoxicity assay, HCT116; type: cell-based; conditions: for IC50: Homo sapiens, HCT-116, 72 h, six concentrations, mean ± SD of three independent experiments
Procedure: as §1, §2

Structure (SMILES) | IC50 [1] [µM] | IC50 ([2]; MTT) [µM] | also measured
CO[C@@H]1C[C@@]2(C)[C@@H](CC[C@]3(C)[C@@H]2CC=C2[C@@H]4[C@@H](C)[C@H](C)CC[C@]4(C(=O)NCc4ccccc4)CC[C@]23C)[C@](C)(C=O)C1=O [Compound 5, α-Methoxy-3,23-Dioxo-Urs-12-Ene-28-Benzylamide] | > 100 | 26 ± 6.68 | 
CO[C@@H]1C[C@]2(C)[C@H]3CC=C4[C@@H]5[C@@H](C)[C@H](C)CC[C@]5(C(=O)NCc5ccccc5)CC[C@@]4(C)[C@]3(C)CC[C@H]2[C@](C)(C=O)[C@H]1O [Compound 6, α-Methoxy-3β-Hydroxy-23-Oxo-Urs-12-Ene-28-Benzylamide] |  | 8.46 ± 1.64 | 
CO[C@@H]1C[C@@]2(C)[C@@H](CC[C@]3(C)[C@@H]2CC=C2[C@@H]4[C@@H](C)[C@H](C)CC[C@]4(C(=O)NCc4ccccc4)CC[C@]23C)[C@](C)(C(=O)O)[C@H]1O [Compound 7, α-Methoxy-3β-Hydroxy-Urs-12-Ene-28-Benzylamide-23-Oic Acid] | 31.9 ± 2.59 | 16.7 ± 1.68 | 
COC(=O)[C@@]1(C)[C@@H]2CC[C@]3(C)[C@H](CC=C4[C@@H]5[C@@H](C)[C@H](C)CC[C@]5(C(=O)NCc5ccccc5)CC[C@]43C)[C@@]2(C)C[C@@H](OC)[C@@H]1O [Compound 9, α-Methoxy-3β-Hydroxy-Urs-12-Ene-28-Benzylamide-23-Methyl Ester] | 6.81 ± 3.87 | 3.07 ± 1.48 | fold more active than AA against SKOV-3 cell line ([1]; relative to AA): 3 fold; fold more active than AA against HCT116 cell line ([2]; relative to AA): 8 fold
COC(=O)[C@]1(C)C(=O)[C@H](OC)C[C@]2(C)[C@H]3CC=C4[C@@H]5[C@@H](C)[C@H](C)CC[C@]5(C(=O)NCc5ccccc5)CC[C@@]4(C)[C@]3(C)CC[C@@H]12 [Compound 11, α-Methoxy-3-Oxo-Urs-12-Ene-28-Benzyl Amide-23-Methyl Ester] | > 100 | > 100 | cytotoxic activity against SKOV-3 cell line (in words) [1]: lost activity; cytotoxic activity against HCT116 cell line (in words) ([2]; MTT): lost activity
CO[C@@H]1C[C@]2(C)[C@H]3CC=C4[C@@H]5[C@@H](C)[C@H](C)CC[C@]5(C(=O)NCc5ccccc5)CC[C@@]4(C)[C@]3(C)CC[C@H]2[C@](C)(C=O)[C@H]1OC(C)=O [Compound 12, α-Methoxy-3β-Acetoxy-23-Oxo-Urs-12-Ene-28-Benzyl Amide] | > 100 | 6.69 ± 1.15 | 
CO[C@@H]1C[C@@]2(C)[C@@H](CC[C@]3(C)[C@@H]2CC=C2[C@@H]4[C@@H](C)[C@H](C)CC[C@]4(C(=O)NCc4ccccc4)CC[C@]23C)[C@](C)(C(N)=O)[C@H]1O [Compound 13a, α-Methoxy-3β-Hydroxy-Urs-12-Ene-28-Benzyl Amide-23-Amide] |  | 7.45 ± 1.62 | 
CNC(=O)[C@@]1(C)[C@@H]2CC[C@]3(C)[C@H](CC=C4[C@@H]5[C@@H](C)[C@H](C)CC[C@]5(C(=O)NCc5ccccc5)CC[C@]43C)[C@@]2(C)C[C@@H](OC)[C@@H]1O [Compound 13b, α-Methoxy-3β-Hydroxy-Urs-12-Ene-28-Benzyl Amide-23-Methylamide] |  | 7.45 ± 3.53 | 
CCNC(=O)[C@@]1(C)[C@@H]2CC[C@]3(C)[C@H](CC=C4[C@@H]5[C@@H](C)[C@H](C)CC[C@]5(C(=O)NCc5ccccc5)CC[C@]43C)[C@@]2(C)C[C@@H](OC)[C@@H]1O [Compound 13c, α-Methoxy-3β-Hydroxy-Urs-12-Ene-28-Benzyl Amide-23-Ethylamide] |  | 11 ± 4.28 | 
CO[C@@H]1C[C@@]2(C)[C@@H](CC[C@]3(C)[C@@H]2CC=C2[C@@H]4[C@@H](C)[C@H](C)CC[C@]4(C(=O)NCc4ccccc4)CC[C@]23C)[C@](C)(C(=O)NC(C)C)[C@H]1O [Compound 13d, α-Methoxy-3β-Hydroxy-Urs-12-Ene-28-Benzyl Amide-23-Isopropylamide] |  | 8.57 ± 3.04 | 
C#CCNC(=O)[C@@]1(C)[C@@H]2CC[C@]3(C)[C@H](CC=C4[C@@H]5[C@@H](C)[C@H](C)CC[C@]5(C(=O)NCc5ccccc5)CC[C@]43C)[C@@]2(C)C[C@@H](OC)[C@@H]1O [Compound 13e, α-Methoxy-3β-Hydroxy-Urs-12-Ene-28-Benzyl Amide-23-Propargylamide] | 6.72 ± 4.32 | 8.03 ± 2.79 | 
COC(=O)C(C)NC(=O)C1(C)C(O)C(OC)CC2(C)C1CCC1(C)C2CC=C2C3C(C)C(C)CCC3(C(=O)NCc3ccccc3)CCC21C [Compound 13f, N-(2α-Methoxy-3β-Hydroxy-Urs-12-Ene-28-Benzylamide-23-Oyl)-L-Alanine Methyl Ester] | 3.09 ± 1.54 | 4.35 ± 1.05 | 
COC(=O)C(NC(=O)C1(C)C(O)C(OC)CC2(C)C1CCC1(C)C2CC=C2C3C(C)C(C)CCC3(C(=O)NCc3ccccc3)CCC21C)C(C)C [Compound 13g, N-(2α-Methoxy-3β-Hydroxy-Urs-12-Ene-28-Benzylamide-23-Oyl)-L-Valine Methyl Ester] |  | 9.69 ± 1.64 | 
COC(=O)C(Cc1ccccc1)NC(=O)C1(C)C(O)C(OC)CC2(C)C1CCC1(C)C2CC=C2C3C(C)C(C)CCC3(C(=O)NCc3ccccc3)CCC21C [Compound 13h, N-(2α-Methoxy-3β-Hydroxy-Urs-12-Ene-28-Benzylamide-23-oyl)-L-Phenylalanine Methyl Ester] | > 100 | > 50 | cytotoxic activity against SKOV-3 cell line (in words) [1]: not active
CCOC(=O)CCCNC(=O)[C@@]1(C)[C@@H]2CC[C@]3(C)[C@H](CC=C4[C@@H]5[C@@H](C)[C@H](C)CC[C@]5(C(=O)NCc5ccccc5)CC[C@]43C)[C@@]2(C)C[C@@H](OC)[C@@H]1O [Compound 13i, N-(2α-Methoxy-3β-Hydroxy-Urs-12-Ene-28-Benzylamide-23-Oyl)-4-Aminobutyric Ethyl Ester] |  | 15.2 ± 1.99 | 
CO[C@@H]1C[C@@]2(C)[C@@H](CC[C@]3(C)[C@@H]2CC=C2[C@@H]4[C@@H](C)[C@H](C)CC[C@]4(C(=O)NCc4ccccc4)CC[C@]23C)[C@](C)(C(=O)N(C)C)[C@H]1O [Compound 13j, α-Methoxy-3β-Hydroxy-Urs-12-Ene-28-Benzyl Amide-23-Dimethylamide] |  | 9.6 ± 4.58 | 
CO[C@@H]1C[C@@]2(C)[C@@H](CC[C@]3(C)[C@@H]2CC=C2[C@@H]4[C@@H](C)[C@H](C)CC[C@]4(C(=O)NCc4ccccc4)CC[C@]23C)[C@](C)(C(N)=O)[C@H]1OC(C)=O [Compound 14a, α-Methoxy-3β-Acetoxy-Urs-12-Ene-28-Benzyl Amide-23-Amide] | 7.12 ± 2.61 | 6.52 ± 3.03 | 
CNC(=O)[C@@]1(C)[C@@H]2CC[C@]3(C)[C@H](CC=C4[C@@H]5[C@@H](C)[C@H](C)CC[C@]5(C(=O)NCc5ccccc5)CC[C@]43C)[C@@]2(C)C[C@@H](OC)[C@@H]1OC(C)=O [Compound 14b, α-Methoxy-3β-Acetoxy-Urs-12-Ene-28-Benzyl Amide-23-Methylamide] |  | 34.2 ± 7.87 | 
CCNC(=O)[C@@]1(C)[C@@H]2CC[C@]3(C)[C@H](CC=C4[C@@H]5[C@@H](C)[C@H](C)CC[C@]5(C(=O)NCc5ccccc5)CC[C@]43C)[C@@]2(C)C[C@@H](OC)[C@@H]1OC(C)=O [Compound 14c, α-Methoxy-3β-Acetoxy-Urs-12-Ene-28-Benzyl Amide-23-Ethylamide] | > 100 | > 100 | 
CO[C@@H]1C[C@@]2(C)[C@@H](CC[C@]3(C)[C@@H]2CC=C2[C@@H]4[C@@H](C)[C@H](C)CC[C@]4(C(=O)NCc4ccccc4)CC[C@]23C)[C@](C)(C(=O)NC(C)C)[C@H]1OC(C)=O [Compound 14d, α-Methoxy-3β-Acetoxy-Urs-12-Ene-28-Benzyl Amide-23-Isopropylamide] | > 100 | > 100 | 
C#CCNC(=O)[C@@]1(C)[C@@H]2CC[C@]3(C)[C@H](CC=C4[C@@H]5[C@@H](C)[C@H](C)CC[C@]5(C(=O)NCc5ccccc5)CC[C@]43C)[C@@]2(C)C[C@@H](OC)[C@@H]1OC(C)=O [Compound 14e, α-Methoxy-3β-Acetoxy-Urs-12-Ene-28-Benzyl Amide-23-Propargylamide] | > 100 | > 100 | 
COC(=O)C(C)NC(=O)C1(C)C(OC(C)=O)C(OC)CC2(C)C1CCC1(C)C2CC=C2C3C(C)C(C)CCC3(C(=O)NCc3ccccc3)CCC21C [Compound 14f, N-(2α-Methoxy-3β-Acetoxy-Urs-12-Ene-28-Benzylamide-23-oyl)-L-Alanine Methyl Ester] | > 100 | > 50 | 
COC(=O)C(NC(=O)C1(C)C(OC(C)=O)C(OC)CC2(C)C1CCC1(C)C2CC=C2C3C(C)C(C)CCC3(C(=O)NCc3ccccc3)CCC21C)C(C)C [Compound 14g, N-(2α-Methoxy-3β-Acetoxy-Urs-12-Ene-28-Benzylamide-23-Oyl)-L-Valine Methyl Ester] | > 100 | > 100 | 
COC(=O)C(Cc1ccccc1)NC(=O)C1(C)C(OC(C)=O)C(OC)CC2(C)C1CCC1(C)C2CC=C2C3C(C)C(C)CCC3(C(=O)NCc3ccccc3)CCC21C [Compound 14h, N-(2α-Methoxy-3β-Acetoxy-Urs-12-Ene-28-Benzylamide-23-Oyl)-L-Phenylalanine Methyl Ester] | > 100 | > 100 | 

Source: article PMC7464201, “Synthesis and Cytotoxic Activity of Novel C-23-Modified Asiatic Acid Derivatives” (Molecules, 2020)
